The values that follow are results of earlier work, collected in US20080213433A1, “Fluid compositions comprising polyphenols and methods for making and packaging the same” (priority 2006, published 2008).

Data set [1] deals with T1, SIRT1 (Homo sapiens, UniProt Q96EB6).
T1 sequence (Q96EB6 1-747): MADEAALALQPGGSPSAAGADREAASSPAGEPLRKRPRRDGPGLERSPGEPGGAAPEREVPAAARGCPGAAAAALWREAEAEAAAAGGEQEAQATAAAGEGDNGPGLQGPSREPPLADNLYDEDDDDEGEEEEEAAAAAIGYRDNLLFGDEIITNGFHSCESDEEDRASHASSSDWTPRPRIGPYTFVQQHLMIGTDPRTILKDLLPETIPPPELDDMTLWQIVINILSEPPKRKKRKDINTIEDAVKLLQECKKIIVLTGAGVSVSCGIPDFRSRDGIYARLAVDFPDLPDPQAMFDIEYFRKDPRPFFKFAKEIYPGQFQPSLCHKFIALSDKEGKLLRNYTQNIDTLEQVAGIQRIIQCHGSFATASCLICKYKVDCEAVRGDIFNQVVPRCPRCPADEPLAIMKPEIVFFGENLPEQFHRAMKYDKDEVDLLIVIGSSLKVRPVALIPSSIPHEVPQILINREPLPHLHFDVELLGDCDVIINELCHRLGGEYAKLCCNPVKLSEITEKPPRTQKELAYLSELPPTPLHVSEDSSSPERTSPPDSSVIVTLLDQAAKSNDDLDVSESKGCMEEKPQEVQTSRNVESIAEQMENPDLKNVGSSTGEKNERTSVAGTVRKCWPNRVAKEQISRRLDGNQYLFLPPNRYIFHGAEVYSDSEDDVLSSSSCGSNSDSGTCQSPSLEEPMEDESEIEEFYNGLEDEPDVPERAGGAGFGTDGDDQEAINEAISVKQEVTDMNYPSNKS
The following applies: sirtuin enzyme; cis-isomer compared to trans-resveratrol.

The conditions of data set [2]: β-glucosidases in the human intestines hydrolyze piceid and release free trans-resveratrol.

On to `Oc1ccc(/C=C\c2cc(O)cc(O)c2)cc1` [Cis-resveratrol], for which the “stimulation / activation of SIRT1” value in data set [1] is “considerably less efficacy”.

For `Oc1ccc(/C=C/c2cc(O)cc(O)c2)cc1` [Trans-resveratrol], the “stimulation / activation of SIRT1” value in data set [1] is given as “stimulate”.

For `OCC1OC(Oc2cc(O)cc(/C=C/c3ccc(O)cc3)c2)C(O)C(O)C1O` (stereo not drawn) [piceid, 2-[3-hydroxy-5-[(E)-2-(4-hydroxyphenyl)ethenyl]phenoxy]-6-(hydroxymethyl)oxane-3,4,5-triol], the “bioavailability of trans-resveratrol derived from the β-glucosidic form vs the free form in solution” value in data set [2] was “equivalent”.
